The EC50 is the concentration at which the effect is half-maximal.

Common to all, as to assay type: cell-based, human
Common to all, as to details: 72 hours of treatment

The subject of one assay is LNCaP cells. Put plainly: Cell viability (AlamarBlue), LNCaP prostate cancer cells. Further details: key to EC50 (μM) in LNCaP cells: Inactive: less than 50% inhibition at the highest concentration tested at 50 μM. How it is done:
(§1) In another exemplary method, half maximal effective concentration (EC50) was determined for some compounds and their isomers as disclosed herein in a variety of human cancer cell lines. In brief, cells from two prostate cancer cell lines (LNCaP, 22RV1), one glioblastoma cell line (U87), one breast cancer cell line (MCF7), a glioma cell line (LN18), a normal prostate cell line (RWPE1), and a glioblastoma cell line (T98G) were plated in a multi-well plate. After 24 hours, one of the compounds herein was added to the well at increasing concentrations. After 72 hours of treatment, cell viability was assessed using AlamrBlue® (Invitrogen) and fluorescence was read using the CLARIOstar Plus Multilabel Plate Reader (BMG Labtech). Samples were normalized to no treatment controls. EC50 values were determined using GraphPad Prism.
(Alamar Blue is a resazurin reagent that responds to reducing activity.)

Another assay deals with 22RV1 cells. Description: Cell viability (AlamarBlue), 22RV1 prostate cancer cells. Further details: key to EC50 (μM) in 22RV1 cells: Inactive: less than 50% inhibition at the highest concentration tested at 50 μM. How it is done: as §1
The test system of the next assay is U87 cells. Description: Cell viability (AlamarBlue), U87 glioblastoma cells. Further details: key to EC50 (μM) in U87 cells: Inactive: less than 50% inhibition at the highest concentration tested at 50 μM. How it is done:
as §1

Take `COC1CCC(C(=O)NC(=O)Nc2ccc(Oc3ncc(C)cn3)c(C)c2)CC1` (single isomer, unassigned) [Compound 27A, 4-methoxy-N-((3-methyl-4-((5-methylpyrimidin-2-yl)oxy)phenyl)carbamoyl)cyclohexane-1-carboxamide]: the EC50 with LNCaP cells is 1.3 µM; in the assay with 22RV1 cells, 2.8 µM; in the assay on U87 cells, 2.1 µM.

Regarding `COC1CCC(C(=O)NC(=O)Nc2ccc(Oc3ncc(C)cn3)c(C)c2)CC1` (single isomer, unassigned) [Compound 27B, 4-methoxy-N-((3-methyl-4-((5-methylpyrimidin-2-yl)oxy)phenyl)carbamoyl)cyclohexane-1-carboxamide], the EC50 was 9.8 µM in the assay with LNCaP cells, 25 µM in the assay on 22RV1 cells and 23.3 µM in the assay on U87 cells.

With `COC1CCC(C(=O)NC(=O)Nc2ccc(Oc3ccc(C(C)C)cn3)c(C)c2)CC1` (single isomer, unassigned) [Compound 34A, N-((4-((5-isopropylpyridin-2-yl)oxy)-3-methylphenyl)carbamoyl)-4-methoxycyclohexane-1-carboxamide], the concentration for a half-maximal effect (EC50) with LNCaP cells (Homo sapiens, LNCaP, 72 h) stood at 1.2 µM; with 22RV1 cells (Homo sapiens, 22Rv1, 72 h), 5.9 µM; in the assay with U87 cells (Homo sapiens, U-87 MG, 72 h), 5.5 µM.

`COC1CCC(C(=O)NC(=O)Nc2ccc(Oc3ccc(C(C)C)cn3)c(C)c2)CC1` (single isomer, unassigned) [Compound 34B, N-((4-((5-isopropylpyridin-2-yl)oxy)-3-methylphenyl)carbamoyl)-4-methoxycyclohexane-1-carboxamide]: in the assay on LNCaP cells, the “EC50 (μM) in LNCaP cells” value is “Inactive”. Besides, the “EC50 (μM) in 22RV1 cells” value with 22RV1 cells was “Inactive”. The “EC50 (μM) in U87 cells” value with U87 cells is on record as “Inactive”.

In the case of `Cc1cc(NC(=O)NC(=O)C2CCOCC2)ccc1Oc1ncc(Cl)cn1` [Compound 4, 3-{4-[(5-chloropyrimidin-2-yl)oxy]-3-methylphenyl}-1-(oxane-4-carbonyl)urea], the “EC50 (μM) in LNCaP cells” value in the assay with LNCaP cells was “Inactive”. In addition, the “EC50 (μM) in 22RV1 cells” value in the assay with 22RV1 cells is on record as “Inactive”.

For the molecule `COC1CCC(C(=O)NC(=O)Nc2ccc(Oc3nccn3C)c(C)c2)CC1` (centres unmarked) [Compound 28, 1-(4-methoxycyclohexanecarbonyl)-3-{3-methyl-4-[(1-methyl-1H-imidazol-2-yl)oxy]phenyl}urea], in the assay on LNCaP cells, the “EC50 (μM) in LNCaP cells” value is recorded as “Inactive”. Moreover, the “EC50 (μM) in 22RV1 cells” value in the assay with 22RV1 cells is listed as “Inactive”. In the assay on U87 cells, the “EC50 (μM) in U87 cells” value is reported as “Inactive”.

For `COC1CCC(C(=O)NC(=O)Nc2ccc(Oc3ncc(C(F)(F)F)cn3)c(C)c2)CC1` (centres unmarked) [Compound 29, 1-(4-methoxycyclohexanecarbonyl)-3-(3-methyl-4-{[5-(trifluoromethyl)pyrimidin-2-yl)oxy}phenyl)urea], the EC50 in the assay on LNCaP cells (Homo sapiens, LNCaP, 72 h) came out at 6.5 µM; with 22RV1 cells (Homo sapiens, 22Rv1, 72 h), 4.7 µM; with U87 cells (Homo sapiens, U-87 MG, 72 h) it was 5.3 µM.

For the molecule `COC1CCC(C(=O)NC(=O)Nc2ccc(Oc3ncc(C(C)C)cn3)c(C)c2)CC1` (centres unmarked) [Compound 30, 1-(4-methoxycyclohexanecarbonyl)-3-(3-methyl-4-{[5-(propan-2-yl)pyrimidin-2-yl)oxy}phenyl)urea], the EC50 was determined as 8.5 µM with LNCaP cells (Homo sapiens, LNCaP, 72 h); 14.4 µM in the assay on 22RV1 cells (Homo sapiens, 22Rv1, 72 h); 12.2 µM in the assay with U87 cells (Homo sapiens, U-87 MG, 72 h).

Consider `COC1CCC(C(=O)NC(=O)Nc2ccc(Oc3ccc(C)cn3)c(C)c2)CC1` (centres unmarked) [Compound 32, 1-(4-methoxycyclohexanecarbonyl)-3-{3-methyl-4-[(5-methylpyridin-2-yl)oxy]phenyl}urea], for which the EC50 in the assay on LNCaP cells (Homo sapiens, LNCaP, 72 h) came to 34 µM; in the assay on 22RV1 cells (Homo sapiens, 22Rv1, 72 h) it was 35 µM. In addition, the “EC50 (μM) in U87 cells” value with U87 cells is listed as “Inactive”.

Take `COC1CCC(C(=O)NC(=O)Nc2ccc(Oc3ccc(C(F)(F)F)cn3)c(C)c2)CC1` (centres unmarked) [Compound 33, 4-methoxy-N-((3-methyl-4-((5-(trifluoromethyl)pyridin-2-yl)oxy)phenyl)carbamoyl)cyclohexane-1-carboxamide]: in the assay on LNCaP cells, the “EC50 (μM) in LNCaP cells” value is “Inactive”. The “EC50 (μM) in 22RV1 cells” value in the assay on 22RV1 cells is reported as “Inactive”. In the assay with U87 cells, the “EC50 (μM) in U87 cells” value was “Inactive”.

For the molecule `COC1CC(C(=O)NC(=O)Nc2ccc(Oc3cnc(N4CCN(C)CC4)nc3)c(C)c2)C1` (centres unmarked) [Compound 35, 3-methoxy-N-((3-methyl-4-((2-(4-methylpiperazin-1-yl)pyrimidin-5-yl)oxy)phenyl)carbamoyl)cyclobutane-1-carboxamide], the “EC50 (μM) in LNCaP cells” value in the assay with LNCaP cells is listed as “Inactive”. For the same molecule, in the assay with 22RV1 cells, the “EC50 (μM) in 22RV1 cells” value is listed as “Inactive”. In addition, in the assay on U87 cells (Homo sapiens, U-87 MG, 72 h), the half-maximal effective concentration (EC50) is 49 µM.

Turning to `COC1CCC(C(=O)NC(=O)Nc2ccc(Oc3cnc(N4CCN(C)CC4)nc3)c(C)c2)CC1` (centres unmarked) [Compound 36, 4-methoxy-N-((3-methyl-4-((2-(4-methylpiperazin-1-yl)pyrimidin-5-yl)oxy)phenyl)carbamoyl)cyclohexane-1-carboxamide], the EC50 worked out at 34 µM in the assay on LNCaP cells (Homo sapiens, LNCaP, 72 h); 34 µM in the assay with 22RV1 cells (Homo sapiens, 22Rv1, 72 h); 31 µM with U87 cells (Homo sapiens, U-87 MG, 72 h).

For the molecule `O=C(NC(=O)C1CCC(OCC2CC2)CC1)Nc1ccc(Oc2ncc(Cl)cn2)c(F)c1` (centres unmarked) [Compound 37, N-((4-((5-chloropyrimidin-2-yl)oxy)-3-fluorophenyl)carbamoyl)-4-(cyclopropylmethoxy)cyclohexane-1-carboxamide], in the assay on LNCaP cells, the “EC50 (μM) in LNCaP cells” value was “Inactive”. Further, in the assay with 22RV1 cells, the “EC50 (μM) in 22RV1 cells” value is “Inactive”. For the same molecule, the “EC50 (μM) in U87 cells” value with U87 cells is recorded as “Inactive”.

For the molecule `Cc1cc(NC(=O)NC(=O)C2CCC(OCC3CC3)CC2)ccc1Oc1ncc(Cl)cn1` (centres unmarked) [Compound 38, N-((4-((5-chloropyrimidin-2-yl)oxy)-3-methylphenyl)carbamoyl)-4-(cyclopropylmethoxy)cyclohexane-1-carboxamide], the “EC50 (μM) in LNCaP cells” value with LNCaP cells is listed as “Inactive”. In the assay on 22RV1 cells, the “EC50 (μM) in 22RV1 cells” value was “Inactive”. Also, the “EC50 (μM) in U87 cells” value in the assay with U87 cells is “Inactive”.

For the molecule `Cc1cc(NC(=O)NC(=O)C2CC(OCC3CC3)C2)ccc1Oc1nccs1` (centres unmarked) [Compound 39, 3-(cyclopropylmethoxy)-N-((3-methyl-4-(thiazol-2-yloxy)phenyl)carbamoyl)cyclobutane-1-carboxamide], in the assay with LNCaP cells, the “EC50 (μM) in LNCaP cells” value was “Inactive”. Further, the “EC50 (μM) in 22RV1 cells” value in the assay on 22RV1 cells was “Inactive”. The “EC50 (μM) in U87 cells” value in the assay on U87 cells is “Inactive”.

In the case of `Cc1cc(NC(=O)NC(=O)C2CC(OCC3CC3)C2)ccc1Oc1ccc(Cl)cn1` (centres unmarked) [Compound 40, N-((4-((5-chloropyridin-2-yl)oxy)-3-methylphenyl)carbamoyl)-3-(cyclopropylmethoxy)cyclobutane-1-carboxamide], the “EC50 (μM) in LNCaP cells” value in the assay with LNCaP cells is recorded as “Inactive”. Moreover, in the assay with 22RV1 cells, the “EC50 (μM) in 22RV1 cells” value is on record as “Inactive”. Further, the “EC50 (μM) in U87 cells” value in the assay on U87 cells is reported as “Inactive”.

Regarding `Cc1cc(NC(=O)NC(=O)C2CC(OCC3CC3)C2)ccc1Oc1ncc(Cl)cn1` (centres unmarked) [Compound 41, N-((4-((5-chloropyrimidin-2-yl)oxy)-3-methylphenyl)carbamoyl)-3-(cyclopropylmethoxy)cyclobutane-1-carboxamide], the “EC50 (μM) in LNCaP cells” value with LNCaP cells was “Inactive”. Further, the EC50 in the assay on 22RV1 cells (Homo sapiens, 22Rv1, 72 h) worked out at 46 µM; in the assay on U87 cells (Homo sapiens, U-87 MG, 72 h), 49 µM.

On to `COC1CCC(C(=O)NC(=O)Nc2ccc(Oc3cncnc3)c(C)c2)CC1` (centres unmarked) [Compound 42, 4-methoxy-N-((3-methyl-4-(pyrimidin-5-yloxy)phenyl)carbamoyl)cyclohexane-1-carboxamide], for which the EC50 with LNCaP cells (Homo sapiens, LNCaP, 72 h) was 19.8 µM; in the assay with 22RV1 cells (Homo sapiens, 22Rv1, 72 h) it was 37 µM; in the assay on U87 cells (Homo sapiens, U-87 MG, 72 h), 41.5 µM.

For `COC1CC(C(=O)NC(=O)Nc2ccc(Oc3cncnc3)c(C)c2)C1` (centres unmarked) [Compound 43, 3-methoxy-N-((3-methyl-4-(pyrimidin-5-yloxy)phenyl)carbamoyl)cyclobutane-1-carboxamide], the EC50 with LNCaP cells (Homo sapiens, LNCaP, 72 h) turned out to be 21.8 µM; with 22RV1 cells (Homo sapiens, 22Rv1, 72 h), 39 µM; in the assay with U87 cells (Homo sapiens, U-87 MG, 72 h) it was 34 µM.

On to `COCCOC1CCC(C(=O)NC(=O)Nc2ccc(Oc3ncc(Cl)cn3)c(C)c2)CC1` (centres unmarked) [Compound 50, N-((4-((5-chloropyrimidin-2-yl)oxy)-3-methylphenyl)carbamoyl)-4-(2-methoxyethoxy)cyclohexanecarboxamide], for which, in the assay on LNCaP cells, the “EC50 (μM) in LNCaP cells” value was “Inactive”. Further, the “EC50 (μM) in 22RV1 cells” value in the assay on 22RV1 cells is recorded as “Inactive”. Moreover, the “EC50 (μM) in U87 cells” value in the assay on U87 cells is listed as “Inactive”.

In the case of `COC1CCC(C(=O)NC(=O)Nc2ccc(Oc3cnc(N4CC5(COC5)C4)nc3)c(C)c2)CC1` (centres unmarked) [Compound 51, N-((4-((2-(2-oxa-6-azaspiro[3.3]heptan-6-yl)pyrimidin-5-yl)oxy)-3-methylphenyl)carbamoyl)-4-methoxycyclohexanecarboxamide], the EC50 in the assay with LNCaP cells (Homo sapiens, LNCaP, 72 h) was 11.1 µM; in the assay on 22RV1 cells (Homo sapiens, 22Rv1, 72 h), 20 µM; in the assay on U87 cells (Homo sapiens, U-87 MG, 72 h) it was 29 µM.

In the case of `COC1CC(C(=O)NC(=O)Nc2ccc(Oc3cnc(N4CC5(COC5)C4)nc3)c(C)c2)C1` (centres unmarked) [Compound 52, -((4-((2-(2-oxa-6-azaspiro[3.3]heptan-6-yl)pyrimidin-5-yl)oxy)-3-methylphenyl)carbamoyl)-3-methoxycyclobutanecarboxamide], the EC50 in the assay with LNCaP cells (Homo sapiens, LNCaP, 72 h) came to 25.3 µM; in the assay with 22RV1 cells (Homo sapiens, 22Rv1, 72 h), 36 µM. Besides, the “EC50 (μM) in U87 cells” value in the assay with U87 cells is recorded as “Inactive”.

For `Cc1cc(NC(=O)NC(=O)C2CCC(O)CC2)ccc1Oc1ncc(Cl)cn1` (centres unmarked) [Compound 53, N-((4-((5-chloropyrimidin-2-yl)oxy)-3-methylphenyl)carbamoyl)-4-hydroxycyclohexane-1-carboxamide], the “EC50 (μM) in LNCaP cells” value in the assay with LNCaP cells was “Inactive”. Moreover, the “EC50 (μM) in 22RV1 cells” value in the assay on 22RV1 cells is recorded as “Inactive”. Further, the “EC50 (μM) in U87 cells” value in the assay with U87 cells is recorded as “Inactive”.
